Results on one compound are retold here after patent publication US5462933A, “Modified bile acid conjugates, and their use as pharmaceuticals” (Hoechst Aktiengesellschaft, priority 1989, dated 1995).

This experiment has as its target T1, Na+-dependent bile acid transport system (Oryctolagus cuniculus, UniProt Q28727).
T1 construct: brush-border membrane vesicles from the ileum of rabbits; from tissue; host or cells: terminal ileum of male New Zealand rabbits, brush-border membrane vesicles
T1 sequence (Q28727 1-347): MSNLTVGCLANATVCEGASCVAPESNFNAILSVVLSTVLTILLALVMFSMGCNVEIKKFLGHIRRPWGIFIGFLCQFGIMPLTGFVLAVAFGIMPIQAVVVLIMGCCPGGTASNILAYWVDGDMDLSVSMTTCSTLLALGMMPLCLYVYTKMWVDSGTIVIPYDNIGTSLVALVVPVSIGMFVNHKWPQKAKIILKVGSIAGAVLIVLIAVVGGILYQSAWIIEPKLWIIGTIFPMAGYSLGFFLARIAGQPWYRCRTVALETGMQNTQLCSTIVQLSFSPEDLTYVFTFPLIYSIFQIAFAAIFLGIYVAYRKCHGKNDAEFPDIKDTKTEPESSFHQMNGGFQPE
The experiment is described as follows: Inhibition of Na+-dependent [3H]taurocholate absorption into brush-border membrane vesicles of the ileum. In kind it is biochemical, rabbit. How it is done:
The preparation of brush-border membrane vesicles from the intestinal cells of the small intestine was carried out using the so-called Mg^2+ precipitation method. Male New Zealand rabbits (2-2.5 kg body weight) were sacrificed by intravenous injection of 0.5 ml of T-61^R. The small intestine was removed and rinsed with ice-cold physiological saline solution. The terminal 3/10 of the small intestine (measured in the oral-rectal direction, i.e. the terminal ileum, which contains the active Na^+ -dependent bile acid transport system) were used for preparation of the brush-border membrane vesicles. The intestines were frozen at -80° C. under nitrogen in plastic bags. The frozen intestines were thawed in a water bath at 30° C. in order to prepare the membrane vesicles. The mucosa was scraped off and suspended in 60 ml of ice-cold 12 mM trys/HCl buffer (pH 7.1)/300 mM mannitol, 5 mM EGTA/10 mg/l of phenylmethylsulfonyl fluoride/1 mg/l of soybean trypsin inhibitor (32 U/mg)/0.5 mg/l of bovine lung trypsin inhibitor (193 U/mg)/5 mg/l of bacitracin. After diluting to 300 ml with ice-cold distilled water, the suspension was homogenized with ice-cooling for 3 minutes at 75% of maximum power using an Ultraturrax (18 rod, IKA Werk Staufen, Federal Republic of Germany). After addition of 3 ml of 1M MgCl2 solution (final concentration 10 mM), the homogenate was allowed to stand at 0° C. for exactly 1 minute. As a result of addition of Mg^2+, the cell membranes aggregate and precipitate with the exception of the brush-border membranes. After centrifugation at 3,000×g (5,000 rpm, SS-34 rotor) for 15 minutes, the precipitate is discarded and the supernatant which contains the brush-border membranes is centrifuged at 26,700×g (15,000 rpm, SS-34 rotor) for 30 minutes. The supernatant was discarded, and the precipitate was rehomogenized in 60 ml of 12 mM tris/HCl buffer (pH 7.1)/60 mM mannitol, 5 mM EGTA using a Potter Elvejhem homogenizer (Braun Melsungen, 900 rpm, 10 strokes). After addition of 0.1 ml of 1M MgCl2 solution and an incubation time of 15 minutes at 0° C., the mixture was again centrifuged at 3,000×g for 15 minutes. The supernatant was then again centrifuged at […] (15,000 rpm, SS-34 rotor) for 30 minutes. The precipitate was taken up in 30 ml of 10 mM tris/hepes buffer (pH 7.4)/300 mM mannitol and homogeneously resuspended by 20 strokes in a Potter Elvejhem homogenizer at 1,000 rpm. After centrifugation at 48,000×g (20,000 rpm, SS-34 rotor) for 30 minutes, the precipitate was taken up in 0.5 to 2 ml of tris/hepes buffer (pH 7.4)/280 mM mannitol (final concentration 20 mg/ml) and resuspended with the aid of a tuberculin syringe using a 27 gauge needle. The vesicles were either used immediately after preparation for transport investigations or stored at -196° C. in liquid nitrogen in 4 mg portions.
The absorption of substrates into brush-border membrane vesicles was determined by means of the so-called membrane filtration technique. 10 μl of the vesicle suspension (100 μg of protein) were pipetted on the wall of a polystyrene incubation tube (11×70 mm) as a drop which contained the incubation medium together with the corresponding ligands (90 μl ). […] The incubation medium was filtered through a polyvinylidene fluoride membrane filter (SYHV LO 4NS, 0.45 μm, 4 mm .phi., Millipore, Eschborn, Federal Republic of Germany). The transport measurement was begun by mixing the vesicles with the incubation medium. […] After the desired incubation time (customarily 1 min), the transport was stopped by addition of 1 ml of ice-cold stop solution (10 mM tris/hepes, (pH 7.4)/150 mM KCl). The resulting mixture was immediately filtered off with suction in a vacuum of 25 to 35 mbar through a membrane filter made of cellulose nitrate (ME 25, 0.45 μm, 25 mm diameter, Schleicher & Schuell, Dassell, Federal Republic of Germany). The filter was subsequently washed with 5 ml of ice-cold Stop solution.

The mark [1] stands for this setting: Na+-dependent transport component, 50 μM taurocholate.

For orientation: IC50 means the concentration that gives 50% inhibition. For orientation: IC25 means the point of the concentration-response curve where the effect stands at 25%. A low value points to an effect from little substance. The term IC75 denotes the concentration needed for an effect of 75%.

Regarding `C[C@H](CCC(=O)NCCS(=O)(=O)O)[C@H]1CC[C@H]2[C@@H]3[C@H](O)C[C@@H]4C[C@@H](OCCNC(=O)CCCc5ccc(N(CCCl)CCCl)cc5)CC[C@]4(C)[C@H]3C[C@H](O)[C@]12C` [Example 67], inhibition was half-maximal at 47.5 µM (IC50). Further, under setting [1], the IC25 amounted to 24 µM and the concentration for an effect of 75% (IC75) is 270 µM.
